Reference: the METLIN SMRT retention time set (Domingo-Almenara et al. 2019)

Assay: gradient 5% acetonitrile 3 min, to 50% in 2 min, to 85% in 15 min, held 3 min, 100 µL/min
Conditions: column: Zorbax Extend-C18 2.1 x 50 mm; eluents: water / acetonitrile, 0.1% formic acid
Outline: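 A Zorbax Extend-C18 column (2.1 × 50 mm, 1.8 μm) run at 100 μL/min with water and acetonitrile, both containing 0.1% formic acid, separated mixtures of ~100 pure standards. The HPLC was coupled to a quadrupole time-of-flight mass spectrometer operated in positive and negative ionization mode, with dead and dwell volumes of 40 μL and 900 μL. Each retention time was taken from a computationally picked adduct peak that was then manually inspected.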

Row | Compound | RP-LC retention time
1 | Cc1ccsc1C(=O)Nc1ccc2ncnc(N3CCCCC3)c2c1 | 687 s
2 | O=C(Nc1cccc(F)c1)c1nnc(C(=O)N2CCC(C(=O)NC3CCCC3)CC2)s1 | 786 s
3 | Cc1c(Cl)cccc1NC(=O)C(=O)NCc1ccsc1 | 943 s
4 | CCN1C(=O)C2CC3(CCN(C(=O)CN4CCCC4=O)CC3)CN2C1=O (stereo not given) | 600 s
5 | CN(Cc1ccco1)C(=O)C1CCCN(c2ncnc3c2nc2n3CCCCC2)C1 (stereo not given) | 738 s
6 | O=C1CCN(Cc2ccc3c(c2)CCO3)CCCCCCN1 | 586 s
7 | O=C(Cc1ccccc1Br)Nc1cc(-c2cccs2)no1 | 973 s
8 | CCOc1ccc(N2C=C(C(=O)OC)S(=O)(=O)c3ccc(F)cc32)cc1 | 856 s
9 | Cc1cc(C)n(CCNc2nc3c(F)cc(F)cc3s2)n1 | 732 s
10 | CCCN1C(=O)c2cc(S(=O)(=O)Nc3ccc(C)cc3F)ccc2Oc2cccnc21 | 1080 s
11 | O=c1c2ccccc2n(Cc2nc(-c3cccc(Cl)c3)no2)c(=O)n1CC1CCCO1 (stereo not given) | 1110 s
12 | CCc1nc2cc(-c3noc(-c4cc(OC)cc(OC)c4)n3)ccc2o1 | 1210 s
13 | CCOC(=O)c1ccc(NC(=O)c2cccc([N+](=O)[O-])c2)cc1 | 890 s
14 | COc1ccccc1NC(=O)c1cn(CC2CCCO2)cc2c(=O)n(-c3ccccc3)nc1-2 (stereo not given) | 983 s
15 | CCCNC(=O)c1cn(-c2cc(-c3nc(C)no3)ccn2)cn1 | 706 s
16 | Cc1ccc(C(=O)Nc2nc(-c3ccc(C(C)(C)C)cc3)cs2)cc1 | 1370 s
17 | Cc1noc(C)c1C1CCCN1C(=O)c1ccnn1C (stereo not given) | 638 s
18 | CCOC(=O)c1cccc(NC(=O)Cn2ccc3ccc(-c4nnc(C)o4)cc32)c1 | 829 s
19 | COc1ccc(CNC(=O)CN2CCc3[nH]c4c(C)cc(C)cc4c(=O)c3C2)cc1 | 629 s
20 | CC(=O)N1CCN(c2nc3c(s2)CC(C(=O)N2CCCCCC2)CC3)CC1 (stereo not given) | 614 s
21 | CCn1c(=O)c(C)nc2cc(-c3noc(-c4ccc(OC)cc4)n3)ccc21 | 942 s
22 | CCCC(=O)N1CCN(c2nc(CN3CCOCC3)cs2)CC1 | 580 s
23 | Cc1cccc(OCc2nc(C)c(C(=O)Nc3nc(-c4ccc(C)c(C)c4)cs3)s2)c1 | 1410 s

Row | Compound | RP-LC retention time
24 | Cc1cc(C(N)=O)c2cc(F)ccc2n1 | 544 s
25 | COc1ccccc1-c1noc(C2CCCN2C(=O)COc2ccccc2C)n1 (stereo not given) | 939 s
26 | Cc1nnc(N2CCN(C(=O)Nc3ccc4c(c3)OCCO4)CC2)c2nn(-c3ccccc3)c(C)c12 | 679 s
27 | COc1ccc(CN2CCC(NC(=O)C3(c4ccccc4)CC3)C2)cn1 (stereo not given) | 639 s
28 | CCOC(=O)C1=C(c2ccccc2)NC(SCC)=C(C#N)C1c1cccnc1 (stereo not given) | 650 s
29 | Brc1cccc(-c2noc(Cc3nnc(-c4ccccc4)o3)n2)c1 | 1090 s
30 | Cc1ccn2cc(C(=O)NCc3cccc(F)c3)nc2c1 | 645 s
31 | Cc1ccccc1NC(=O)c1cc(C)n2nc(-c3ccsc3)cc2n1 | 1240 s
32 | Cc1ccc(OCc2nnc3sc(C4COc5ccccc5O4)nn23)cc1 (stereo not given) | 1010 s
33 | O=C(NC1CCCN(c2cc(-c3ccncc3)[nH]n2)C1)c1ccc2c(c1)OCO2 (stereo not given) | 603 s
34 | CCN1CCn2cc(S(=O)(=O)NCc3ccc(C)c(C)c3)cc2C1=O | 761 s
35 | O=C(NCCc1csc(-c2ccc(F)cc2)n1)c1cccs1 | 913 s
36 | CC1(C)NC(=O)N(CCCCCCN2C(=O)NC(C)(C)C2=O)C1=O | 623 s
37 | Cn1nc(CNC(=O)C2(C)CCCCC2)c2c1CCN(S(C)(=O)=O)C2 | 702 s
38 | CCS(=O)(=O)Nc1ccc(OCc2nnc(-c3ccccc3)o2)cc1 | 804 s
39 | CC(C)[Si]1(C(C)C)OCC2OC(n3cnc4c(N)ncnc43)C(N)C2O[Si](C(C)C)(C(C)C)O1 (stereo not given) | 828 s
40 | Cc1ccc2c(Nc3ccc(C)c(C)c3)c(C(=O)N3CCC(C)CC3)cnc2n1 | 681 s
41 | O=C(Nc1cccc(OCc2nnc(-c3ccccc3)o2)c1)C1CCCC1 | 943 s
42 | O=C1C2CCCN2C(c2ccncc2)N1c1cccc(Cl)c1 (stereo not given) | 587 s
43 | O=C(NCc1cc(-c2ccc3c(c2)OCO3)on1)c1cc(=O)c2ccccc2o1 | 758 s
44 | Cc1ccc(-c2nnc(Cc3nc(-c4cccc(F)c4)no3)o2)cc1F | 1110 s
45 | O=S(=O)(c1ccc2c(c1)CCCC2)N1CCCC1c1nc(-c2ccc(F)cc2)no1 (stereo not given) | 1290 s
46 | O=C(CN1C(=O)c2ccccc2C1=O)N1CCCN(c2nc3ncccc3o2)CC1 | 681 s

Row | Compound | RP-LC retention time
47 | CCOc1ccc(S(=O)(=O)N2CCC(C(=O)NCCO)CC2)cc1C | 699 s
48 | O=C1c2ccccc2C(=O)N1CCCCN(C(=O)c1cccs1)c1ccc(F)cc1F | 951 s
49 | CCNC(=O)N1CC(n2cc(C(=O)NCCC3=CCCCC3)nn2)C1 | 721 s
50 | O=C(NCc1ccccn1)C1CCc2sc(C(=O)N3CCCCC3)cc2C1 (stereo not given) | 506 s
51 | COc1cccc(CCC(=O)Nc2cnn(-c3ncc(N4CCCC4)cn3)c2)c1 | 829 s
52 | Cc1oc(-c2[nH]ncc2C(=O)N2CCCCC2)cc1S(=O)(=O)NCc1ccncc1 | 575 s
53 | CNc1nc(Nc2cn(C(C)(C)C#N)nc2C)ncc1C(F)(F)F | 696 s
54 | CCc1cc(C2CCCN2C(=O)Nc2ccc(OC)c(OC)c2)on1 (stereo not given) | 724 s
55 | O=C(NC1CCN(c2cc(-c3ccc(F)cc3)[nH]n2)C1)c1cccc(OC(F)(F)F)c1 (stereo not given) | 840 s
56 | N#CCCN1CCN(c2ccc(NC(=O)C3CC3)c(C(=O)O)c2)CC1 | 579 s
57 | Cn1c(N2CCCC(C(=O)N3CCN(c4ccc(Cl)cc4)CC3)C2)cc(=O)n(C)c1=O (stereo not given) | 800 s
58 | COc1ccc(Cl)cc1NC(=O)C1CCN(C(=O)c2cccn2-c2cccnc2)CC1 | 784 s
59 | CSc1cccc(NC(=O)C2CCC(=O)N2S(=O)(=O)c2ccc(C)cc2)c1 (stereo not given) | 954 s
60 | CCCCCOc1ccc(C(=O)CCNC(Cc2c[nH]c3ccccc23)C(=O)O)cc1 (stereo not given) | 787 s
61 | CCCN(C)C(=O)C1CCCN(c2cnc3nccnc3c2)C1 (stereo not given) | 655 s
62 | CCCN1CCN(C(=O)c2nc(N3CCCCC3)c3c(C)cc(C)nc3n2)CC1 | 566 s
63 | COc1cccc(C2Cn3nnc(-c4nc(-c5ccccc5Br)no4)c3CO2)c1 (stereo not given) | 1170 s
64 | CCCOc1nc2ccccc2nc1N1CCCC(C(=O)NC2CCCCC2C)C1 (stereo not given) | 1310 s
65 | Cn1c(=O)c(C(=O)N2CCCCC2)nc2cccnc21 | 648 s
66 | O=C(NC1CCS(=O)(=O)C1)C1Cn2cccc2C(=O)N1Cc1ccccc1 (stereo not given) | 652 s
67 | NC(=O)C1CCN(C(=O)CCn2cnc3cc(S(=O)(=O)N4CCCC4)ccc32)CC1 | 577 s
68 | COc1ccc2c(Oc3ccc(NC(=O)c4c(C)n(CC(C)(C)O)n(-c5ccccc5)c4=O)nc3)ccnc2c1 | 707 s
69 | O=C1CCc2cc(S(=O)(=O)NCc3ccccc3Cl)cc3c2N1CCC3 | 863 s

Row | Compound | RP-LC retention time
70 | Cc1ccn2cc(C(=O)NC3CCCC3)nc2c1 | 600 s
71 | COc1cc(CNC(=O)C23CCC=C2N(C2CCCC2)C(=O)CC3)cc(OC)c1 (stereo not given) | 752 s
72 | CCCn1cc(-c2ccncc2)cc1C(=O)NCc1ccccc1C | 689 s
73 | O=C(Cn1nc2c(N3CCCCCC3)nccn2c1=O)Nc1cccc(Cl)c1 | 763 s
74 | CC1CCc2nn(CC(=O)Nc3c(F)c(F)c(F)c(F)c3F)cc2C1 (stereo not given) | 934 s
75 | Cc1[nH]c(-c2ccccc2)cc1C(=O)NC1CCCCC1 | 898 s
76 | O=C(Nc1ccc(Br)cc1)C1CCCN(c2ncc(-c3ccccc3)cn2)C1 (stereo not given) | 1240 s
77 | CC(C)CN1C(=O)CCc2cc(NS(=O)(=O)c3ccc(F)cc3)ccc21 | 861 s
78 | Cc1cc(C(=O)Nc2ccc3c(c2)N(S(=O)(=O)c2ccc(F)cc2)CCC3)c(C)o1 | 1010 s
79 | COc1ccccc1-c1nc(C2CCN(C(=O)c3cccc4[nH]ccc34)CC2)no1 | 652 s
80 | CCSc1nnc(-c2nn(C)c3c2CN(C(=O)c2cccc(N(C)C)c2)CC3)n1C | 682 s
81 | CCCN1C(=O)COc2ccc(-c3csc(NC(=O)c4ccncc4)n3)cc21 | 816 s
82 | CN(C)CCNC(=O)CN1C(=O)C2CCCCN2c2ccc(C(=O)N3CCCC3)cc21 (stereo not given) | 596 s
83 | Cc1ccc2oc(-c3noc(C(=O)NCCC4=CCCCC4)n3)c(C)c2c1 | 1400 s
84 | COc1ccc(-c2noc(-c3nnn4c3COC(c3ccc(F)cc3)C4)n2)cc1 (stereo not given) | 1120 s
85 | O=C(Cc1cn(Cc2ccc(Cl)cc2)c2ccccc12)NCc1ccccn1 | 700 s
86 | Cc1ccc(NC(=O)CN2C(=O)CC(C)S(=O)(=O)c3ccccc32)cc1Cl (stereo not given) | 894 s
87 | CCOc1ccc(CNC(=O)C2CCCN(c3ccc(=O)n(-c4ccc(CC)cc4)n3)C2)cc1 (stereo not given) | 940 s
88 | CCc1ccc(S(=O)(=O)c2cnc(N3CCCC(C)C3)nc2N)cc1 (stereo not given) | 1150 s
89 | Cc1ccc(NC(=O)C(C)C2CCN(C(=O)Nc3ccc(F)cc3)CC2)cc1C (stereo not given) | 928 s
90 | Cn1cc(-c2ccncc2)cc1C(=O)NCc1ccc(F)c(Cl)c1 | 664 s
